According to patent US20230278972A1, “SUBSTITUTED HALOALKYL SULFONANILIDE HERBICIDES” (FMC Corporation, priority 2020, published 2023):

Assays:
Assay type in all cases: in vivo
[1] = system: barnyardgrass (Echinochloa crus-galli); test: Test A preemergence, barnyardgrass; conditions: Preemergence; for Barnyardgrass plant response rating: visual injury on 0 to 100 scale (0 no effect, 100 complete control), approximately 10 days; for Plant response rating, Barnyardgrass: 0 to 100 scale (0 no effect, 100 complete control)
How it was run: (§1)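 After sowing into a sand-amended loam, pots for the preemergence test were treated by spraying directly onto soil. In parallel, seedlings at the one- to two-leaf stage and 2 to 10 cm tall were treated postemergence with the identical surfactant-containing formulation.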

[2] = system: Foxtail, Giant (giant foxtail, Setaria faberi); test: Test A postemergence, Foxtail, Giant; conditions: Postemergence, 0 to 100 scale (0 no effect, 100 complete control); for Foxtail, Giant plant response rating: visual injury vs untreated controls after approx. 10 days
How it was run: as §1

[3] = system: Foxtail, Giant (giant foxtail, Setaria faberi); test: Test A preemergence, Foxtail, Giant; conditions: Preemergence; for Foxtail, Giant plant response rating: visual injury on 0 to 100 scale (0 no effect, 100 complete control), approximately 10 days; for Plant response rating, Foxtail, Giant: 0 to 100 scale (0 no effect, 100 complete control)
How it was run: as §1

[4] = system: kochia (Bassia scoparia); test: Test A preemergence, kochia; conditions: Preemergence; for Kochia plant response rating: visual injury on 0 to 100 scale (0 no effect, 100 complete control), approximately 10 days; for Plant response rating, Kochia: 0 to 100 scale (0 no effect, 100 complete control)
How it was run: as §1

[5] = system: Ryegrass, Italian (Italian ryegrass, Lolium multiflorum); test: Test A preemergence, Ryegrass, Italian; conditions: Preemergence; for Ryegrass, Italian plant response rating: visual injury on 0 to 100 scale (0 no effect, 100 complete control), approximately 10 days; for Plant response rating, Ryegrass, Italian: 0 to 100 scale (0 no effect, 100 complete control)
How it was run: as §1

[6] = system: Ryegrass, Italian (Italian ryegrass, Lolium multiflorum); test: Test A postemergence, Ryegrass, Italian; conditions: Postemergence, 0 to 100 scale (0 no effect, 100 complete control); for Ryegrass, Italian plant response rating: visual injury vs untreated controls after approx. 10 days
How it was run: as §1

[7] = system: pigweed (Amaranthus retroflexus); test: Test A preemergence, pigweed; conditions: for Pigweed plant response rating: visual injury on 0 to 100 scale (0 no effect, 100 complete control), approximately 10 days; for Plant response rating, Pigweed: 0 to 100 scale (0 no effect, 100 complete control)
How it was run: (§2)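 Postemergence ratings come from foliar sprays onto one- to two-leaf plants of 2 to 10 cm grown in loam/sand; preemergence ratings come from a directed spray onto the soil of newly seeded pots. Formulation was a surfactant-containing non-phytotoxic solvent blend.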

[8] = system: barnyardgrass (Echinochloa crus-galli); test: Test A postemergence, barnyardgrass; conditions: Postemergence, 0 to 100 scale (0 no effect, 100 complete control); for Barnyardgrass plant response rating: visual injury vs untreated controls after approx. 10 days
How it was run: as §2

[9] = system: corn (Zea mays); test: Test A postemergence, corn; conditions: Postemergence, 0 to 100 scale (0 no effect, 100 complete control); for Corn plant response rating: visual injury vs untreated controls after approx. 10 days
How it was run: as §1

[10] = system: ragweed (common ragweed, Ambrosia artemisiifolia); test: Test A preemergence, ragweed; conditions: Preemergence; for Ragweed plant response rating: visual injury on 0 to 100 scale (0 no effect, 100 complete control), approximately 10 days; for Plant response rating, Ragweed: 0 to 100 scale (0 no effect, 100 complete control)
How it was run: as §1

[11] = system: pigweed (Amaranthus retroflexus); test: Test A postemergence, pigweed; conditions: Postemergence, 0 to 100 scale (0 no effect, 100 complete control); for Pigweed plant response rating: visual injury vs untreated controls after approx. 10 days
How it was run: as §1

[12] = system: blackgrass (Alopecurus myosuroides); test: Test A postemergence, blackgrass; conditions: Postemergence, 0 to 100 scale (0 no effect, 100 complete control); for Blackgrass plant response rating: visual injury vs untreated controls after approx. 10 days
How it was run: as §1

[13] = system: galium (catchweed bedstraw, Galium aparine); test: Test A postemergence, galium; conditions: Postemergence, 0 to 100 scale (0 no effect, 100 complete control); for Galium plant response rating: visual injury vs untreated controls after approx. 10 days
How it was run: as §2

[14] = system: kochia (Bassia scoparia); test: Test A postemergence, kochia; conditions: Postemergence, 0 to 100 scale (0 no effect, 100 complete control); for Kochia plant response rating: visual injury vs untreated controls after approx. 10 days
How it was run: as §1

[15] = system: ragweed (common ragweed, Ambrosia artemisiifolia); test: Test A postemergence, ragweed; conditions: Postemergence, 0 to 100 scale (0 no effect, 100 complete control); for Ragweed plant response rating: visual injury vs untreated controls after approx. 10 days
How it was run: as §1

[16] = system: wheat (Triticum aestivum); test: Test A postemergence, wheat; conditions: Postemergence, 0 to 100 scale (0 no effect, 100 complete control); for Wheat plant response rating: visual injury vs untreated controls after approx. 10 days
How it was run: as §2

[17] = 125 g ai/ha, visual injury, approx. 10 days
[18] = 500 g ai/ha, visual injury approx. 10 days

For `Cc1cc(C(F)(F)F)c(C(=O)N2CCCCC2)cc1NS(=O)(=O)C(F)(F)F` [Compound 180], the “Barnyardgrass plant response rating” value ([1]; 125 g ai/ha) was 0, the “Plant response rating, Barnyardgrass” value ([1]; 500 g ai/ha) was 80 and the “Plant response rating, Foxtail, Giant” value ([2]; 125 g ai/ha) was 10. The “Foxtail, Giant plant response rating” value ([2]; 500 g ai/ha) was 10, the “Foxtail, Giant plant response rating” value ([3]; 125 g ai/ha) was 0 and the “Plant response rating, Foxtail, Giant” value ([3]; 500 g ai/ha) was 90. The “Kochia plant response rating” value ([4]; 125 g ai/ha) was 0, the “Plant response rating, Kochia” value ([4]; 500 g ai/ha) was 0 and the “Ryegrass, Italian plant response rating” value ([5]; 125 g ai/ha) was 0. The “Plant response rating, Ryegrass, Italian” value ([5]; 500 g ai/ha) was 50, the “Plant response rating, Ryegrass, Italian” value ([6]; 125 g ai/ha) was 0 and the “Ryegrass, Italian plant response rating” value ([6]; 500 g ai/ha) was 0. The “Pigweed plant response rating” value ([7]; 125 g ai/ha) was 20, the “Plant response rating, Pigweed” value ([7]; 500 g ai/ha) was 70 and the “Plant response rating, Barnyardgrass” value ([8]; 125 g ai/ha) was 0. The “Barnyardgrass plant response rating” value ([8]; 500 g ai/ha) was 10, the “Plant response rating, Corn” value ([9]; 125 g ai/ha) was 0 and the “Corn plant response rating” value ([9]; 500 g ai/ha) was 0. The “Ragweed plant response rating” value ([10]; 125 g ai/ha) was 20, the “Plant response rating, Ragweed” value ([10]; 500 g ai/ha) was 70 and the “Plant response rating, Pigweed” value ([11]; 125 g ai/ha) was 50. For the same molecule, the “Pigweed plant response rating” value ([11]; 500 g ai/ha) was 70, the “Plant response rating, Blackgrass” value ([12]; 125 g ai/ha) was 0 and the “Blackgrass plant response rating” value ([12]; 500 g ai/ha) was 20. For the same molecule, the “Plant response rating, Galium” value ([13]; 125 g ai/ha) was 70, the “Galium plant response rating” value ([13]; 500 g ai/ha) was 90 and the “Plant response rating, Kochia” value ([14]; 125 g ai/ha) was 10. The “Kochia plant response rating” value ([14]; 500 g ai/ha) was 40, the “Plant response rating, Ragweed” value ([15]; 125 g ai/ha) was 20 and the “Ragweed plant response rating” value ([15]; 500 g ai/ha) was 70. For the same molecule, the “Plant response rating, Wheat” value ([16]; 125 g ai/ha) was 0 and the “Wheat plant response rating” value ([16]; 500 g ai/ha) was 0.
In the case of `CCC1(CC)CC(c2cc(NS(=O)(=O)C(F)(F)F)c(C)cc2C)=NO1` [Compound 209], the “Plant response rating, Barnyardgrass” value [1, 17] is reported as 40, the “Plant response rating, Barnyardgrass” value ([1]; 500 g ai/ha) is reported as 90 and the “Plant response rating, Foxtail, Giant” value ([2]; 125 g ai/ha) is reported as 0. For the same molecule, the “Foxtail, Giant plant response rating” value ([2]; 500 g ai/ha) was 10, the “Plant response rating, Foxtail, Giant” value [3, 17] was 20 and the “Plant response rating, Foxtail, Giant” value ([3]; 500 g ai/ha) was 70. For the same molecule, the “Plant response rating, Kochia” value [4, 17] was 0, the “Plant response rating, Kochia” value ([4]; 500 g ai/ha) was 80 and the “Plant response rating, Ryegrass, Italian” value [5, 17] was 50. For the same molecule, the “Plant response rating, Ryegrass, Italian” value ([5]; 500 g ai/ha) was 90, the “Plant response rating, Ryegrass, Italian” value ([6]; 125 g ai/ha) was 40 and the “Ryegrass, Italian plant response rating” value ([6]; 500 g ai/ha) was 90. The “Plant response rating, Pigweed” value [7, 17] was 0, the “Plant response rating, Pigweed” value ([7]; 500 g ai/ha) was 50 and the “Plant response rating, Barnyardgrass” value ([8]; 125 g ai/ha) was 20. For the same molecule, the “Barnyardgrass plant response rating” value ([8]; 500 g ai/ha) was 70, the “Plant response rating, Corn” value ([9]; 125 g ai/ha) was 0 and the “Corn plant response rating” value ([9]; 500 g ai/ha) was 30. The “Plant response rating, Ragweed” value [10, 17] was 0, the “Plant response rating, Ragweed” value ([10]; 500 g ai/ha) was 60 and the “Plant response rating, Pigweed” value ([11]; 125 g ai/ha) was 30. For the same molecule, the “Pigweed plant response rating” value ([11]; 500 g ai/ha) was 50, the “Plant response rating, Blackgrass” value ([12]; 125 g ai/ha) was 20 and the “Blackgrass plant response rating” value ([12]; 500 g ai/ha) was 30. For the same molecule, the “Plant response rating, Galium” value ([13]; 125 g ai/ha) was 70, the “Galium plant response rating” value ([13]; 500 g ai/ha) was 80 and the “Plant response rating, Kochia” value ([14]; 125 g ai/ha) was 20. For the same molecule, the “Kochia plant response rating” value ([14]; 500 g ai/ha) was 40, the “Plant response rating, Ragweed” value ([15]; 125 g ai/ha) was 40 and the “Ragweed plant response rating” value ([15]; 500 g ai/ha) was 60. For the same molecule, the “Plant response rating, Wheat” value ([16]; 125 g ai/ha) was 0 and the “Wheat plant response rating” value ([16]; 500 g ai/ha) was 0.
For `Cc1cc(Cl)c(C(=O)N(C)C)cc1N(S(=O)(=O)C(F)(F)F)S(=O)(=O)C(F)(F)F` [Compound 256], the “Plant response rating, Barnyardgrass” value [1, 17] was 90, the “Barnyardgrass plant response rating” value ([1]; 500 g ai/ha) was 100 and the “Plant response rating, Foxtail, Giant” value ([2]; 125 g ai/ha) was 10. The “Plant response rating, Foxtail, Giant” value [2, 18] was 0, the “Plant response rating, Foxtail, Giant” value [3, 17] was 30 and the “Foxtail, Giant plant response rating” value ([3]; 500 g ai/ha) was 90. The “Plant response rating, Kochia” value [4, 17] was 60, the “Kochia plant response rating” value ([4]; 500 g ai/ha) was 90 and the “Plant response rating, Ryegrass, Italian” value [5, 17] was 80. For the same molecule, the “Ryegrass, Italian plant response rating” value ([5]; 500 g ai/ha) was 100, the “Plant response rating, Ryegrass, Italian” value ([6]; 125 g ai/ha) was 0 and the “Plant response rating, Ryegrass, Italian” value [6, 18] was 50. For the same molecule, the “Plant response rating, Pigweed” value [7, 17] was 100, the “Pigweed plant response rating” value ([7]; 500 g ai/ha) was 100 and the “Plant response rating, Barnyardgrass” value ([8]; 125 g ai/ha) was 60. The “Plant response rating, Barnyardgrass” value [8, 18] was 50, the “Plant response rating, Corn” value ([9]; 125 g ai/ha) was 0 and the “Plant response rating, Corn” value [9, 18] was 20. For the same molecule, the “Plant response rating, Ragweed” value [10, 17] was 60, the “Ragweed plant response rating” value ([10]; 500 g ai/ha) was 80 and the “Plant response rating, Pigweed” value ([11]; 125 g ai/ha) was 60. For the same molecule, the “Plant response rating, Pigweed” value [11, 18] was 80, the “Plant response rating, Blackgrass” value ([12]; 125 g ai/ha) was 0 and the “Plant response rating, Blackgrass” value [12, 18] was 0. The “Plant response rating, Galium” value ([13]; 125 g ai/ha) was 60, the “Plant response rating, Galium” value [13, 18] was 80 and the “Plant response rating, Kochia” value ([14]; 125 g ai/ha) was 50. The “Plant response rating, Kochia” value [14, 18] was 70, the “Plant response rating, Ragweed” value ([15]; 125 g ai/ha) was 40 and the “Plant response rating, Ragweed” value [15, 18] was 80. The “Plant response rating, Wheat” value ([16]; 125 g ai/ha) was 20 and the “Plant response rating, Wheat” value [16, 18] was 60.
